Laboratory results: US20120058989A1, “ANTIBACTERIAL FLUOROQUINOLONE ANALOGS” (Achaogen, Inc., priority 2008, published 2012)
One block for each compound: values may come before it.

Assays:
Experiment in all cases: MIC, CLSI broth microdilution
Format in all cases: cell-based
[1] = system: P. aeruginosa APAE001 (Fluoroquinolone-susceptible, ATCC27853); conditions: Table 2
How it was run: (§1)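 CLSI M7-A7 broth microdilution; 2-fold serial dilutions in Mueller Hinton Broth, 1:1 with inoculum; final 5×10^5 CFU/mL; 35° C., 20 h, ambient air. QC strains E. coli ATCC 25922, P. aeruginosa ATCC 27853, S. aureus ATCC 29213.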

[2] = system: E. coli AECO001 (Fluoroquinolone susceptible, ATCC25922); conditions: Table 2, 35° C., 20 hours
How it was run: as §1

[3] = system: A. baumannii AABA1065 (Fluoroquinolone-susceptible); conditions: Table 2
How it was run: as §1

[4] = system: S. aureus ASAU001 (Fluoroquinolone-susceptible, ATCC29213); conditions: Table 2
How it was run: as §1

[5] = system: A. baumannii AABA1009 (Fluoroquinolone-resistant); conditions: Table 2
How it was run: as §1

[6] = system: P. aeruginosa APAE054 (Fluoroquinolone-resistant); conditions: Table 2
How it was run: as §1

[7] = system: S. aureus ASAU1031 (Fluoroquinolone-resistant); conditions: Table 2
How it was run: as §1

[8] = system: S. pneumoniae ASPN1027 (Fluoroquinolone-resistant); conditions: Table 2
How it was run: as §1

[9] = system: E. coli AECO066 (Fluoroquinolone-resistant); conditions: Table 2
How it was run: as §1

[10] = system: S. pneumoniae ASPN001 (Fluoroquinolone-susceptible, ATCC49619); conditions: Table 2
How it was run: as §1

MIC AECO 001 [2]: A (MIC's of 1.0 μg/mL or less = A) | MIC AABA 1065 [3]: A (MIC's of 1.0 μg/mL or less = A) | MIC ASAU 001 [4]: A (MIC's of 1.0 μg/mL or less = A) | MIC AABA 1009 [5]: C (MIC's of greater than 8.0 μg/mL = C) | MIC APAE 054 [6]: C (MIC's of greater than 8.0 μg/mL = C) | MIC ASAU 1031 [7]: A (MIC's of 1.0 μg/mL or less = A) | MIC ASPN 1027 [8]: A (MIC's of 1.0 μg/mL or less = A) | MIC AECO 066 [9]: C (MIC's of greater than 8.0 μg/mL = C) | MIC ASPN 001 [10]: A (MIC's of 1.0 μg/mL or less = A)
SMILES: O=C(O)c1cn(C2CC2)c2c3c(c(F)cc2c1=O)N1CC(=NO)C[C@H]1CC=C3 [18/11, (7aR,9E)-4-Cyclopropyl-12-fluoro-9-(hydroxyimino)-1-oxo-4,7,7a,8,9,10-hexahydro-1H-pyrrolo[1′,2′:1,7]aze-pino[2,3-h]quinoline-2-carboxylic acid]
MIC APAE 001 [1]: B (MIC's of greater than 1.0 μg/mL to 8.0 μg/mL = B)

MIC ASAU 001 [4]: A (MIC's of 1.0 μg/mL or less = A) | MIC AABA 1009 [5]: C (MIC's of greater than 8.0 μg/mL = C) | MIC APAE 054 [6]: C (MIC's of greater than 8.0 μg/mL = C) | MIC ASAU 1031 [7]: C (MIC's of greater than 8.0 μg/mL = C) | MIC ASPN 1027 [8]: C (MIC's of greater than 8.0 μg/mL = C) | MIC AECO 066 [9]: C (MIC's of greater than 8.0 μg/mL = C)
SMILES: NC[C@@H]1CC2CC=Cc3c(c(F)cc4c(=O)c(C(=O)O)cn(C5CC5)c34)N2C1.O=C(O)C(F)(F)F (stereo partly drawn) [22/17, (9S)-9-(Aminomethyl)-4-cyclopropyl-12-fluoro-1-oxo-4,7,7a,8,9,10-hexahydro-1H-pyrrolo-[1′,2′:1,7]azepino[2,3-h]quinoline-2-carboxylic acid trifluoroacetate]
MIC APAE 001 [1]: B (MIC's of greater than 1.0 μg/mL to 8.0 μg/mL = B) | MIC AECO 001 [2]: B (MIC's of greater than 1.0 μg/mL to 8.0 μg/mL = B) | MIC AABA 1065 [3]: B (MIC's of greater than 1.0 μg/mL to 8.0 μg/mL = B) | MIC ASPN 001 [10]: B (MIC's of greater than 1.0 μg/mL to 8.0 μg/mL = B)

MIC APAE 001 [1]: C (MIC's of greater than 8.0 μg/mL = C) | MIC AECO 001 [2]: C (MIC's of greater than 8.0 μg/mL = C) | MIC AABA 1065 [3]: C (MIC's of greater than 8.0 μg/mL = C) | MIC AABA 1009 [5]: C (MIC's of greater than 8.0 μg/mL = C) | MIC APAE 054 [6]: C (MIC's of greater than 8.0 μg/mL = C) | MIC ASAU 1031 [7]: C (MIC's of greater than 8.0 μg/mL = C) | MIC ASPN 1027 [8]: C (MIC's of greater than 8.0 μg/mL = C) | MIC AECO 066 [9]: C (MIC's of greater than 8.0 μg/mL = C) | MIC ASPN 001 [10]: C (MIC's of greater than 8.0 μg/mL = C)
SMILES: O=C(O)c1cn(C2CC2)c2c3c(c(F)cc2c1=O)N1C(=O)CC[C@H]1CC=C3 [23/12, (7aS)-4-Cyclopropyl-12-fluoro-1,10-dioxo-4,7,7a,8,9,10-hexahydro-1H-pyrrolo[1′,2′:1,7]azepino[2,3-h]quino-line-2-carboxylic acid]
MIC ASAU 001 [4]: B (MIC's of greater than 1.0 μg/mL to 8.0 μg/mL = B)

MIC AECO 001 [2]: A (MIC's of 1.0 μg/mL or less = A) | MIC AABA 1009 [5]: C (MIC's of greater than 8.0 μg/mL = C) | MIC APAE 054 [6]: C (MIC's of greater than 8.0 μg/mL = C) | MIC ASAU 1031 [7]: C (MIC's of greater than 8.0 μg/mL = C) | MIC ASPN 1027 [8]: C (MIC's of greater than 8.0 μg/mL = C) | MIC AECO 066 [9]: C (MIC's of greater than 8.0 μg/mL = C)
SMILES: N[C@@H]1CCN2c3c(F)cc4c(=O)c(C(=O)O)cn(C5CC5)c4c3C=NC[C@H]12.O=C(O)C(F)(F)F [26/16, (3aR,4R)-4-Amino-13-cyclopropyl-8-fluoro-10-oxo-3a,4,5,6,10,13-hexahydro-3H-pyrrolo[2′,1′:3,4][1,4]diazepino[5,6-h]quinoline-11-carboxylic acid trifluoroacetate]
MIC APAE 001 [1]: B (MIC's of greater than 1.0 μg/mL to 8.0 μg/mL = B) | MIC AABA 1065 [3]: B (MIC's of greater than 1.0 μg/mL to 8.0 μg/mL = B) | MIC ASAU 001 [4]: B (MIC's of greater than 1.0 μg/mL to 8.0 μg/mL = B) | MIC ASPN 001 [10]: B (MIC's of greater than 1.0 μg/mL to 8.0 μg/mL = B)

The remaining lines, values behind:

SMILES: O=C(O)c1cn(C2CC2)c2c3c(c(F)cc2c1=O)N1CCCC1C(=O)NC3 (centres unmarked) [10/6, 13-Cyclopropyl-8-fluoro-3,10-dioxo-2,3,3a,4,5,6,10,13-octahydro-1H-pyrrolo[2′,1′:3,4][1,4]diazepino[5,6-h]quinoline-1′-carboxylic acid]
MIC APAE 001 [1]: B (MIC's of greater than 1.0 μg/mL to 8.0 μg/mL = B) | MIC AECO 001 [2]: A (MIC's of 1.0 μg/mL or less = A) | MIC AABA 1065 [3]: B (MIC's of greater than 1.0 μg/mL to 8.0 μg/mL = B) | MIC ASAU 001 [4]: A (MIC's of 1.0 μg/mL or less = A) | MIC AABA 1009 [5]: C (MIC's of greater than 8.0 μg/mL = C) | MIC APAE 054 [6]: C (MIC's of greater than 8.0 μg/mL = C) | MIC ASAU 1031 [7]: B (MIC's of greater than 1.0 μg/mL to 8.0 μg/mL = B) | MIC ASPN 1027 [8]: B (MIC's of greater than 1.0 μg/mL to 8.0 μg/mL = B) | MIC AECO 066 [9]: C (MIC's of greater than 8.0 μg/mL = C) | MIC ASPN 001 [10]: A (MIC's of 1.0 μg/mL or less = A)

SMILES: N[C@H]1C[C@H]2CCCc3c(c(F)cc4c(=O)c(C(=O)O)cn(C5CC5)c34)N2C1.O=C(O)C(F)(F)F [7B/17, (7aR,9S)-9-Amino-4-cyclopropyl-12-fluoro-1-oxo-4,5,6,7,7a,8,9,10-octahydro-1H-pyrrolo[1′,′:1,7]-azepino[2,3-h]quinoline-2-carboxylic acid trifluoroacetate]
MIC APAE 001 [1]: B (MIC's of greater than 1.0 μg/mL to 8.0 μg/mL = B) | MIC AECO 001 [2]: A (MIC's of 1.0 μg/mL or less = A) | MIC AABA 1065 [3]: A (MIC's of 1.0 μg/mL or less = A) | MIC ASAU 001 [4]: A (MIC's of 1.0 μg/mL or less = A) | MIC AABA 1009 [5]: C (MIC's of greater than 8.0 μg/mL = C) | MIC APAE 054 [6]: C (MIC's of greater than 8.0 μg/mL = C) | MIC ASAU 1031 [7]: B (MIC's of greater than 1.0 μg/mL to 8.0 μg/mL = B) | MIC ASPN 1027 [8]: B (MIC's of greater than 1.0 μg/mL to 8.0 μg/mL = B) | MIC AECO 066 [9]: B (MIC's of greater than 1.0 μg/mL to 8.0 μg/mL = B) | MIC ASPN 001 [10]: A (MIC's of 1.0 μg/mL or less = A)

SMILES: O=C(O)c1cn(C2CC2)c2c3c(c(F)cc2c1=O)N1C[C@H](O)C[C@H]1CCC3 [18/8, (7aR,9R)-4-Cyclopropyl-12-fluoro-9-hydroxy-1-oxo-4,5,6,7,7a,8,9,10-octahydro-1H-pyrrolo-[1′,2′:1,7]aze-pino[2,3-h]quinoline-2-carboxylic acid]
MIC APAE 001 [1]: C (MIC's of greater than 8.0 μg/mL = C) | MIC AECO 001 [2]: A (MIC's of 1.0 μg/mL or less = A) | MIC AABA 1065 [3]: B (MIC's of greater than 1.0 μg/mL to 8.0 μg/mL = B) | MIC ASAU 001 [4]: A (MIC's of 1.0 μg/mL or less = A) | MIC AABA 1009 [5]: C (MIC's of greater than 8.0 μg/mL = C) | MIC APAE 054 [6]: C (MIC's of greater than 8.0 μg/mL = C) | MIC ASAU 1031 [7]: B (MIC's of greater than 1.0 μg/mL to 8.0 μg/mL = B) | MIC ASPN 1027 [8]: C (MIC's of greater than 8.0 μg/mL = C) | MIC AECO 066 [9]: C (MIC's of greater than 8.0 μg/mL = C) | MIC ASPN 001 [10]: A (MIC's of 1.0 μg/mL or less = A)

SMILES: O=C(O)C(F)(F)F.O=C(O)c1cn(C2CC2)c2c3c(c(F)cc2c1=O)N1CCCC1CNC3 (centres unmarked) [13/5, 13-Cyclopropyl-8-fluoro-10-oxo-2,3,3a,4,5,6,10,13-octahydro-1H-pyrrolo[2′,1′:3,4][1,4]diazepino[5,6-h]quinoline-11-carboxylic acid trifluoroacetate]
MIC APAE 001 [1]: B (MIC's of greater than 1.0 μg/mL to 8.0 μg/mL = B) | MIC AECO 001 [2]: A (MIC's of 1.0 μg/mL or less = A) | MIC AABA 1065 [3]: A (MIC's of 1.0 μg/mL or less = A) | MIC ASAU 001 [4]: A (MIC's of 1.0 μg/mL or less = A) | MIC AABA 1009 [5]: C (MIC's of greater than 8.0 μg/mL = C) | MIC APAE 054 [6]: C (MIC's of greater than 8.0 μg/mL = C) | MIC ASAU 1031 [7]: C (MIC's of greater than 8.0 μg/mL = C) | MIC ASPN 1027 [8]: C (MIC's of greater than 8.0 μg/mL = C) | MIC AECO 066 [9]: C (MIC's of greater than 8.0 μg/mL = C) | MIC ASPN 001 [10]: B (MIC's of greater than 1.0 μg/mL to 8.0 μg/mL = B)
